Measurements from paper PMC10041525, “New Dual Inhibitors of Bacterial Topoisomerases with Broad-Spectrum Antibacterial Activity and In Vivo Efficacy against Vancomycin-Intermediate Staphylococcus aureus” (Journal of Medicinal Chemistry, 2023).
In brackets after ≈: the same amount, converted by molar mass. Read-outs that look alike come from different tables or passages of the source. One block for each compound: values may come before it.

Assays:
[1] = in vitro; assay type: in vitro ADME, mouse; settings: male, CD-1, mouse; for fraction unbound at 4 h, 5 μM: plasma (pooled), mouse plasma, read-out: fu, fraction unbound; for recovery at 4 h, 5 μM: plasma protein binding assay
Description: The PPB studies were performed by Selvita d.o.o. (Zagreb, Croatia) in mouse plasma (CD-1 male, pooled, commercially obtained from BioIVT) via equilibrium dialysis. Compounds were assayed at 5 μM (0.5% DMSO) in two replicates, and incubation time was 4 h at 37 °C. Samples were taken at 0 min and 4 h. Aliquots from both buffer and plasma compartment matrix were matched and mixed with 6 volumes of STOP solution (acetonitrile/methanol (2:1) + internal standard – diclofenac) and analyzed by LC–MS/MS. Assay controls were caffeine (low), verapamil (moderate binding), and nicardipine (very high binding), and protein contamination was checked.

[2] = tested on: 100 A. baumannii strains (50 MDR, 50 non-MDR); test: MIC broth microdilution at IHMA Europe, panel of 100 strains; assay type: cell-based; settings: Acinetobacter baumannii; for MIC50: read-out: MIC 50
[3] = tested on: E. coli ATCC 25922; test: IHMA QC MIC; assay type: cell-based; settings: Escherichia coli, ATCC25922; read-out: MIC (QC, repeated tests)
[4] = tested on: 3 sensitive and 7 MDR A. baumannii clinical isolates; test: MIC, Hungarian clinical isolates and controls (384-well); assay type: cell-based; settings: n=10

SMILES: Cc1[nH]c(C(=O)Nc2nc3c(N4CCOCC4C)cc(C(=O)O)cc3s2)c(Cl)c1Cl (centres unmarked) [7b, 2-(3,4-Dichloro-5-methyl-1H-pyrrole-2-carboxamido)-4-(3-methylmorpholino)benzo[d]thiazole-6-carboxylic Acid]
fraction unbound at 4 h, 5 μM [1]: 0.013
recovery at 4 h, 5 μM [1]: 84.5%

SMILES: Cc1[nH]c(C(=O)Nc2nc3c(N4CCOC[C@H]4C)cc(C(=O)O)cc3s2)c(Cl)c1Cl [7c, (R)-2-(3,4-Dichloro-5-methyl-1H-pyrrole-2-carboxamido)-4-(3-methylmorpholino)benzo[d]thiazole-6-carboxylic Acid]
fraction unbound at 4 h, 5 μM [1]: 0.016
recovery at 4 h, 5 μM [1]: 93%

SMILES: Cc1[nH]c(C(=O)Nc2nc3c(N4CCOC[C@@H]4C)cc(C(=O)O)cc3s2)c(Cl)c1Cl [7d, (S)-2-(3,4-Dichloro-5-methyl-1H-pyrrole-2-carboxamido)-4-(3-methylmorpholino)benzo[d]thiazole-6-carboxylic Acid]
fraction unbound at 4 h, 5 μM [1]: 0.011
recovery at 4 h, 5 μM [1]: 89.5%

MIC ([2]; A. baumannii IHMA 1769393, Lithuania 2018, Non-MDR, read-out: MIC): ≤ 0.5 µg/mL
MIC ([2]; A. baumannii IHMA 1769782, Israel 2018, MDR, read-out: MIC): 8 µg/mL (≈ 19.9 µM)
MIC ([2]; A. baumannii IHMA 1769910, Israel 2018, Non-MDR, read-out: MIC): ≤ 0.5 µg/mL
MIC ([2]; A. baumannii IHMA 1790317, Czech Republic 2018, Non-MDR, read-out: MIC): ≤ 0.5 µg/mL
MIC ([2]; A. baumannii IHMA 1790916, Romania 2018, Non-MDR, read-out: MIC): ≤ 0.5 µg/mL
MIC ([2]; A. baumannii IHMA 1791877, Israel 2018, MDR, read-out: MIC): 8 µg/mL (≈ 19.9 µM)
MIC ([2]; A. baumannii IHMA 1792961, Jordan 2018, MDR, read-out: MIC): 8 µg/mL (≈ 19.9 µM)
MIC ([2]; A. baumannii IHMA 1795669, Tunisia 2018, Non-MDR, read-out: MIC): ≤ 0.5 µg/mL
MIC ([2]; A. baumannii IHMA 1815856, Israel 2018, MDR, read-out: MIC): 8 µg/mL (≈ 19.9 µM)
MIC ([2]; A. baumannii IHMA 1821468, South Africa 2018, Non-MDR, read-out: MIC): ≤ 0.5 µg/mL
MIC ([2]; A. baumannii IHMA 1829500, Georgia 2018, Non-MDR, read-out: MIC): ≤ 0.5 µg/mL
MIC ([2]; A. baumannii IHMA 1830924, United Kingdom 2018, Non-MDR, read-out: MIC): ≤ 0.5 µg/mL
MIC ([2]; A. baumannii IHMA 1849829, Kuwait 2018, Non-MDR, read-out: MIC): ≤ 0.5 µg/mL
MIC ([2]; A. baumannii IHMA 1857118, Slovenia 2018, Non-MDR, read-out: MIC): ≤ 0.5 µg/mL
MIC ([2]; A. baumannii IHMA 1863631, France 2018, Non-MDR, read-out: MIC): ≤ 0.5 µg/mL
MIC ([2]; A. baumannii IHMA 1870054, United States 2018, Non-MDR, read-out: MIC): ≤ 0.5 µg/mL
MIC ([2]; A. baumannii IHMA 1884428, Italy 2018, Non-MDR, read-out: MIC): ≤ 0.5 µg/mL
MIC ([2]; A. baumannii IHMA 1884990, Germany 2018, Non-MDR, read-out: MIC): ≤ 0.5 µg/mL
MIC ([2]; A. baumannii IHMA 1900538, Turkey 2018, Non-MDR, read-out: MIC): ≤ 0.5 µg/mL
MIC ([2]; A. baumannii IHMA 1913773, Kenya 2018, Non-MDR, read-out: MIC): ≤ 0.5 µg/mL
MIC ([2]; A. baumannii IHMA 1926285, Qatar 2018, Non-MDR, read-out: MIC): ≤ 0.5 µg/mL
MIC ([2]; A. baumannii IHMA 1957343, Portugal 2019, Non-MDR, read-out: MIC): ≤ 0.5 µg/mL
MIC ([2]; A. baumannii IHMA 1967860, Spain 2019, Non-MDR, read-out: MIC): ≤ 0.5 µg/mL
MIC ([2]; A. baumannii IHMA 1975075, Israel 2019, Non-MDR, read-out: MIC): ≤ 0.5 µg/mL
MIC ([2]; A. baumannii IHMA 1977077, Kuwait 2019, Non-MDR, read-out: MIC): ≤ 0.5 µg/mL
MIC ([2]; A. baumannii IHMA 1983151, Greece 2019, MDR, read-out: MIC): 8 µg/mL (≈ 19.9 µM)
MIC ([2]; A. baumannii IHMA 1986678, Turkey 2019, Non-MDR, read-out: MIC): ≤ 0.5 µg/mL
MIC ([2]; A. baumannii IHMA 1987162, Croatia 2019, MDR, read-out: MIC): 8 µg/mL (≈ 19.9 µM)
MIC ([2]; A. baumannii IHMA 1993615, Turkey 2019, MDR, read-out: MIC): 8 µg/mL (≈ 19.9 µM)
MIC ([2]; A. baumannii IHMA 1995161, Czech Republic 2019, Non-MDR, read-out: MIC): ≤ 0.5 µg/mL
MIC ([2]; A. baumannii IHMA 1997936, Morocco 2019, Non-MDR, read-out: MIC): ≤ 0.5 µg/mL
MIC ([2]; A. baumannii IHMA 1999178, Belgium 2019, Non-MDR, read-out: MIC): ≤ 0.5 µg/mL
MIC ([2]; A. baumannii IHMA 2014367, Jordan 2019, Non-MDR, read-out: MIC): ≤ 0.5 µg/mL
MIC ([2]; A. baumannii IHMA 2014931, South Africa 2019, Non-MDR, read-out: MIC): ≤ 0.5 µg/mL
MIC ([2]; A. baumannii IHMA 2019315, Romania 2019, Non-MDR, read-out: MIC): ≤ 0.5 µg/mL
MIC ([2]; A. baumannii IHMA 2031511, Greece 2019, Non-MDR, read-out: MIC): ≤ 0.5 µg/mL
MIC ([2]; A. baumannii IHMA 2031524, Greece 2019, MDR, read-out: MIC): 4 µg/mL (≈ 9.96 µM)
MIC ([2]; A. baumannii IHMA 2034657, Tunisia 2019, Non-MDR, read-out: MIC): ≤ 0.5 µg/mL
MIC ([2]; A. baumannii IHMA 2035134, Serbia 2019, Non-MDR, read-out: MIC): ≤ 0.5 µg/mL
MIC ([2]; A. baumannii IHMA 2038976, Hungary 2019, MDR, read-out: MIC): 8 µg/mL (≈ 19.9 µM)
MIC ([2]; A. baumannii IHMA 2058329, Slovenia 2019, Non-MDR, read-out: MIC): ≤ 0.5 µg/mL
MIC ([2]; A. baumannii IHMA 2065587, France 2019, Non-MDR, read-out: MIC): ≤ 0.5 µg/mL
MIC ([2]; A. baumannii IHMA 2099294, United Kingdom 2019, Non-MDR, read-out: MIC): ≤ 0.5 µg/mL
MIC ([2]; A. baumannii IHMA 2129256, Qatar 2019, Non-MDR, read-out: MIC): ≤ 0.5 µg/mL
MIC ([2]; A. baumannii IHMA 2157614, Australia 2020, Non-MDR, read-out: MIC): ≤ 0.5 µg/mL
MIC ([2]; A. baumannii IHMA 2178574, Ukraine 2020, Non-MDR, read-out: MIC): ≤ 0.5 µg/mL
MIC ([2]; A. baumannii IHMA 2180134, Malaysia 2020, Non-MDR, read-out: MIC): ≤ 0.5 µg/mL
MIC ([2]; A. baumannii IHMA 2180142, Malaysia 2020, MDR, read-out: MIC): 8 µg/mL (≈ 19.9 µM)
MIC ([2]; A. baumannii IHMA 2181370, Morocco 2020, MDR, read-out: MIC): 8 µg/mL (≈ 19.9 µM)
MIC ([2]; A. baumannii IHMA 2183729, Argentina 2020, MDR, read-out: MIC): 4 µg/mL (≈ 9.96 µM)
MIC ([2]; A. baumannii IHMA 2183849, Argentina 2020, Non-MDR, read-out: MIC): ≤ 0.5 µg/mL
MIC ([2]; A. baumannii IHMA 2184382, Japan 2020, Non-MDR, read-out: MIC): ≤ 0.5 µg/mL
MIC ([2]; A. baumannii IHMA 2193375, Venezuela 2020, MDR, read-out: MIC): 8 µg/mL (≈ 19.9 µM)
MIC ([2]; A. baumannii IHMA 2193485, Venezuela 2020, Non-MDR, read-out: MIC): ≤ 0.5 µg/mL
MIC ([2]; A. baumannii IHMA 2193607, Venezuela 2020, MDR, read-out: MIC): 4 µg/mL (≈ 9.96 µM)
MIC ([2]; A. baumannii IHMA 2195460, Italy 2020, MDR, read-out: MIC): 8 µg/mL (≈ 19.9 µM)
MIC ([2]; A. baumannii IHMA 2196959, South Africa 2020, MDR, read-out: MIC): 8 µg/mL (≈ 19.9 µM)
MIC ([2]; A. baumannii IHMA 2206507, Taiwan 2020, Non-MDR, read-out: MIC): ≤ 0.5 µg/mL
MIC ([2]; A. baumannii IHMA 2212575, Hungary 2020, Non-MDR, read-out: MIC): ≤ 0.5 µg/mL
MIC ([2]; A. baumannii IHMA 2215307, Hong Kong 2020, Non-MDR, read-out: MIC): ≤ 0.5 µg/mL
MIC ([2]; A. baumannii IHMA 2216586, Taiwan 2020, MDR, read-out: MIC): 8 µg/mL (≈ 19.9 µM)
MIC ([2]; A. baumannii IHMA 2223200, Colombia 2020, Non-MDR, read-out: MIC): ≤ 0.5 µg/mL
MIC ([2]; A. baumannii IHMA 2224303, Panama 2020, Non-MDR, read-out: MIC): ≤ 0.5 µg/mL
MIC ([2]; A. baumannii IHMA 2233099, Guatemala 2020, MDR, read-out: MIC): 8 µg/mL (≈ 19.9 µM)
MIC ([2]; A. baumannii IHMA 2233548, Kazakhstan 2020, Non-MDR, read-out: MIC): ≤ 0.5 µg/mL
MIC ([2]; A. baumannii IHMA 2238964, Thailand 2020, MDR, read-out: MIC): 8 µg/mL (≈ 19.9 µM)
MIC ([2]; A. baumannii IHMA 2239052, Thailand 2020, Non-MDR, read-out: MIC): ≤ 0.5 µg/mL
MIC ([2]; A. baumannii IHMA 2261047, Belgium 2020, MDR, read-out: MIC): 8 µg/mL (≈ 19.9 µM)
MIC ([2]; A. baumannii IHMA 2261633, Canada 2020, Non-MDR, read-out: MIC): ≤ 0.5 µg/mL
MIC ([2]; A. baumannii IHMA 2274234, South Africa 2020, MDR, read-out: MIC): 8 µg/mL (≈ 19.9 µM)
MIC ([2]; A. baumannii IHMA 2275237, Chile 2020, Non-MDR, read-out: MIC): ≤ 0.5 µg/mL
MIC ([2]; MDR n = 50, read-out: MIN (minimum MIC)): 4 µg/mL (≈ 9.96 µM)
MIC50 ([2]; all isolates n = 100): ≤ 0.5 µg/mL
MIC ([2]; all isolates n = 100, read-out: MIN (minimum MIC)): ≤ 0.5 µg/mL
MIC ([2]; non-MDR n = 50, read-out: MAX (maximum MIC)): ≤ 0.5 µg/mL
MIC50 ([2]; non-MDR n = 50): ≤ 0.5 µg/mL
MIC90 ([2]; non-MDR n = 50, read-out: MIC 90): ≤ 0.5 µg/mL
MIC ([2]; non-MDR n = 50, read-out: MIN (minimum MIC)): ≤ 0.5 µg/mL
MIC [3]: ≤ 0.5 µg/mL
Cumulative % at MIC ([4]; MIC 0.0625 µg/mL): 20%
Cumulative % at MIC ([4]; MIC 0.5 µg/mL): 30%
Cumulative % at MIC ([4]; MIC 32 µg/mL): 70%
Cumulative % at MIC ([4]; MIC 64 µg/mL): 100%
SMILES: COc1c(N2C[C@@H]3CCCN[C@@H]3C2)c(F)cc2c(=O)c(C(=O)O)cn(C3CC3)c12 [Moxifloxacin, moxifloxacin]
